Test results: patent US20230087388A1, “INHIBITORS OF HUMAN DEUBIQUITINASES FOR THE TREATMENT OF CORONAVIRAL INFECTIONS” (Immunologik GmbH, priority 2020, published 2023)
Entries after “also recorded” stand apart in the source; their conditions may differ.

Assays:
SARS-CoV-2 [1] = assay type: cell-based
[2] = molecular target: T1, papain-like protease (PLpro) of SARS-CoV-2 (Severe acute respiratory syndrome coronavirus 2, UniProt P0DTD1); assay type: biochemical
T1 construct: They are the papain-like proteases (PLpro), encoded within nsp3; purchased R&D biosystems E-611-050

SARS-CoV-2 [3] = test: qRT-PCR of viral RNA from SARS-CoV-2 infected Vero-B4 cells; assay type: cell-based; conditions: 10 μM, 3 d treatment, 3 independent experiments; compared with 10 μM chloroquine or hydroxychloroquine
Experimental: Therefore, virus-containing samples were quantified by real-time PCR AgPath-ID One-Step RT-PCR Kit from Ambion (Cat: 4387424) allowing reverse transcription, cDNA synthesis and PCR amplification in a single step. Samples were analyzed by 7500 software v2.3 (applied Bioscience). PCR primers were used according to 44: RdRp_fwd: 5′-GTG-ARA-TGG-TCA-TGT-GTG-GCG-G-3′ and RdRp_rev 5′-CAR-ATG-TTA-AAS-ACA-CTA-TTA-GCA-TA-C-3′. Probe was 5′-CAG-GTG-GAA-/ZEN/CCT-CAT-CAG-GAG-ATG-C-3′ (Label: FAM/IBFQ Iowa Black FQ). As positive control a specific target for E and RdRp gen of SARS-CoV2 was used and made by Integrated DNA Technologies. Control: 5′-TAA-TAC-GAC-TCA-CTA-TAG-GGT-ATT-GAG-TGA-AAT-GGT-CAT-GTG-TGG-CGG-TTC-ACT-ATA-TGT-TAA-ACC-AGG-TGG-AAC-CTC-ATC-AGG-AGA-TGC-CAC-AAC-TGC-TTA-TGC-TAA-TAG-TGT-TTT-TAA-CAT-TTG-GAA-GAG- ACA-GGT-ACG-TTA-ATA-GTT-AAT-AGC-GTA-CTT-CTT-TTT-CTT-GCT-TTC-GTG-GTA-TTC-TTG-CTA-GTT-ACA-CTA-GCC-ATC-CTT-ACT-GCG-CTT-CGA-TTG-TGT-GCG-TAC-TGC-TGC-AAT-ATT-GTT-3′. The annealing temperature was 60° C. The experimental procedure containing the infection, treatment and isolation of virions was the same as described for the Western blot analysis. The evaluation of qRT-PCR analysis clearly confirmed the results of the Western blot experiments.

Vero-B4 cells = conditions: WST assay, 3 days

Structure (SMILES)	reduction in the release of SARS-CoV-2 proteins (densitometric analysis) (SARS-CoV-2 [1]; 1.25 μM P5091, 3 d treatment, 3 independent experiments, untreated = 100%) [%]	release of SARS-CoV-2 proteins / replication of SARS-CoV-2 (SARS-CoV-2 [1]; 5 μM P5091, infected Vero-B4 cells, 3 d treatment)	release of viral proteins in Western Blot (SARS-CoV-2 [1]; different concentrations of P5091, 3 d treatment)	inhibitory effect on SARS-CoV-2 PLpro activity ([2]; 20 nM recombinant PLpro, ISG15-AMC substrate, 30 min pretreatment, 120 min readout, PR-619 1.25-10 μM, P5091 1.5-6 μM)	reduction of activity of PLpro from SARS-CoV-2 (AUC) ([2]; 6 μM P5091, n=3) [%]	inhibition of replication of SARS-CoV-2 in infected Vero-B4 cells (SARS-CoV-2 [1]; 10 μM PR-619)	SARS-CoV-2 proteins in Western Blot, virus and cell fraction (SARS-CoV-2 [1]; 10 μM PR-619, infected Vero-B4 cells, 3 dpi)	generation of SARS-CoV-2 proteins, densitometric evaluation (nucleoprotein virus fraction, spike S1 cell fraction) (SARS-CoV-2 [1]; 10 μM, 3 d treatment, 3 independent experiments, compared with 10 μM chloroquine or hydroxychloroquine)	amount of viral RNA (qRT-PCR) (SARS-CoV-2 [3])	concentration at which a clear toxic effect started (Vero-B4 cells)
CC(=O)c1cc([N+](=O)[O-])c(Sc2cccc(Cl)c2Cl)s1 [P5091, 1-[5-[(2,3-dichlorophenyl)thio]-4-nitro-2-thienyl]-ethanone]	90	complete block; also recorded: nearly completely inhibit	dose-dependent decrease	dose dependent reduction; also recorded: direct inhibitory action	80	–	–	–	–	–
N#CSc1cc(SC#N)c(N)nc1N [PR-619, 2,6-diaminopyridine-3,5-bis(thiocyanate)]	–	–	–	–	–	broadly inhibit	clear reduction	significantly inhibited	significantly reduced	over 20 μM
